From patent US20180298317A1, “DEVICES FOR SIMULATING A FUNCTION OF A TISSUE AND METHODS OF USE AND MANUFACTURING THEREOF” (PRESIDENT AND FELLOWS OF HARVARD COLLEGE, priority 2015, published 2018)

Legend:
[1] = test system: human brain microvascular endothelial cells with pericytes or astrocytes; test: Inflammatory stimulation and cytokine release in 3D BBB chip; format: cell-based
Protocol: Microfluidic chips and Transwell inserts were cultured for about 72 hours, followed by incubation in CSC complete medium with fetal bovine serum reduced from about 10% to about 2% for about 18 hours. Microfluidics chips were stimulated with TNF-α (Sigma-Aldrich) at about 50 ng/ml in CSC complete medium with about 2% serum for about 6 hrs (about 5 min flow at about 120 μl/min corresponding to about 1 dyne/cm^2, followed by static conditions). Transwells were stimulated on the apical and the basal side. Following thorough rinsing of microfluidic chips under continuous flow (about 120 μl/min, about 1 dyne/cm^2) and batch washes of Transwell plates with CSC complete medium with about 2% serum, conditioned medium from the chips was collected continuously for about 1 hour at about 100 μl/hr (about 0.01 dyne/cm^2) using syringe-driven flow; medium from the apical compartment was collected from Transwells after about 1 hour. The cytokine release profile was assayed with the Bio-Plex Pro Human Cytokine 17-plex Assay (Bio-Rad) in a Bioplex 3D system (Bio-Rad), and the resulting cytokine release profiles were normalized to cell culture area in 3D BBB chips versus Transwells.
(§1) To explore whether we can use the synthetic nature of the 3D BBB chip to analyze the contributions of individual brain vasculature-associated cells to neuroinflammation, the engineered microvessels were cultured in the presence or absence of TNF-α (about 50 ng/ml) that was flowed through the lumen for about 6 hours. Cytokine release profiles produced in the 3D BBB chips containing endothelium with or without either pericytes or astrocytes were then analyzed, and the results were compared to those obtained with similar mono-cultures, as well as co-cultures maintained in commercial Transwell culture plates.

[2] = test system: human brain microvascular endothelial cells with pericytes or astrocytes; test: Inflammatory stimulation and cytokine release in static Transwell cultures; format: cell-based
Protocol: 24-well Transwell inserts (Corning), about 0.4 μm, polyethylene terephthalate membranes, were coated with rat-tail collagen I (Corning) at about 100 μg/ml in phosphate-buffered saline for about 2 hours. The inserts were inverted and pericytes or astrocytes were seeded at about 6.25×10^3 cells per insert. After about 2 hours of incubation, the inserts were placed in 24-well plates and seeded with hBMVEC at about 2.5×10^4 cells per insert. Transendothelial electrical resistance (TEER) values were measured after about 120 hrs of culture using an EndOhm (WPI) and chopstick electrodes. Paracellular diffusion was assayed about 5 minutes after adding dextran 3 kDa-Alexa488 (about 100 μg/ml) to the apical chamber and using a Synergy Neo platereader (BioTek (Winooski, Vt., USA)).
Microfluidic chips and Transwell inserts were cultured for about 72 hours, followed by incubation in CSC complete medium with fetal bovine serum reduced from about 10% to about 2% for about 18 hours. Microfluidics chips were stimulated with TNF-α (Sigma-Aldrich) at about 50 ng/ml in CSC complete medium with about 2% serum for about 6 hrs (about 5 min flow at about 120 μl/min corresponding to about 1 dyne/cm^2, followed by static conditions). Transwells were stimulated on the apical and the basal side. […]
as §1

TNF-α
IL-6 induction ([1]; 3D BBB chip co-cultures of astrocytes-endothelial cells and pericytes-endothelial cells, about 50 ng/ml, about 6 hours): strong IL-6 induction
IL-8 production in response to stimulation ([1]; 3D BBB chip, astrocytes or pericytes in combination with endothelial cells): enhanced IL-8 production
induction of G-CSF secretion ([1]; 3D BBB chip, pericytes with endothelium, about 50 ng/ml, about 6 hours): generally not sensitive to induction
increase in G-CSF secretion in response to TNF-α stimulation ([1]; 3D BBB chips containing astrocytes and endothelial cells, about 50 ng/ml, about 6 hours): ≤ 10 fold
IL-6 induction ([2]; Transwell co-cultures, about 50 ng/ml, about 6 hours): barely detectable
IL-8 production in response to stimulation ([2]; Transwell cultures, astrocytes or pericytes in combination with endothelial cells): enhanced IL-8 production
induction of G-CSF secretion ([2]; endothelial cells and astrocytes co-cultured under static conditions in Transwells, about 50 ng/ml, about 6 hours): could not be detected
